The nature of assay [1]: Five-year large scale randomized unblinded controlled trial of EPA-E: onset of cardiovascular events. It counts as in vivo, human. The note with it: five years; for incidence rate of the cardiovascular events / Cases with the cardiovascular events/all cases: EPA-E group. On the procedure:
(§1) The observation was conducted by a large scale randomized unblinded controlled trial of the EPA-E group (9,326 cases) and the control group (9,319 cases). The patients were randomized into the groups at the beginning of the trial so that no significant difference is found between the groups in the background factors of the patients, namely, age, sex ratio, history and complication, type and proportion of the HMG-CoA RI, serum lipid concentration, and the like. The patients of both groups were under nutritional counseling, and HMG-CoA RI was administered to them as a base drug.
The data was collected from […] participant patients by about 4,900 participant physicians in about 2,900 participant facilities with sufficient case number, randomization, and the strictness required for the controlled trial. For example, in choosing the participant patients, the serum T-Cho concentration was measured twice at an interval of two to four weeks except for the cases where the patients underwent an adequate nutritional consulting with high compliance and the cases where the fasting blood was collected after cessation of the antilipidemic drug, in which the measurement was conducted only once. While untreated patients were preferable, in the case of patients who had been taking an antilipidemic drug for more than six months at the start of the trial, four weeks of drug holidays (eight weeks in the case of probucol) were given. Patients who were administered with the antilipidemic drug for six months or less at the start of the trial were admitted in the trial with no drug holiday, and when the drug was HMG-CoA RI, its administration was continued while other drugs were changed to HMG-CoA RI.
In order to exclude cardiovascular events in the unstable period after the onset of myocardial infarction and cardiovascular events such as restenosis in the unstable period which is conceived to be caused by the angioplasty itself, the patients at or within six months after the acute myocardial infarction and patients at or within six months after the cardiovascular angioplasty were excluded from the trial subjects, and only patients who are beyond six months after such events and who are conceived to be in the stable period were included in the trial. In addition, patients who are inadequate for the examination of the action of preventing the onset of cardiovascular events for a long time which is the object of this trial, for example, patients of unstable angina pectoris, patients with history or complication of serious heart diseases (such as severe arrhythmia, heart failure, cardiomyopathy, valvular disease, and congenital heart disease), patients at or within six months from the onset of cerebrovascular disorder, and patients with complication of serious liver disease or kidney disease, as well as the patients whose participation was judged to be inappropriate by the attending physician were excluded from the trial.
(§2) Epadel (Mochida Pharmaceutical Co., Ltd.) was orally administered as EPA-E typically at an adult dose of 600 mg after the meal three times a day. In the case of abnormal serum TG, however, the dose could be increased to 900 mg per administration and three times a day.
(§3) Pravastatin sodium (Mevalotin tablets and fine granules, Sankyo Co., Ltd.), simvastatin (Lipovas tablets, Banyu Pharmaceutical Co., Ltd.), or atorvastatin calcium hydrate (Lipitor tablets, Astellas Pharma Inc. and Pfizer) was used for the HMG-CoA RI, and these drugs were orally administered according to the predetermined dosage regimen.
For five years from before the start of the trial to the end of the trial, the concentration of the serum lipid (T-Cho, HDL-Cho, and TG) was periodically measured, and LDL-Cho was calculated by the equation of T-Cho-HDL-Cho-(TG/5). […]

A short description of assay [2]: Serum lipid concentration in the five-year EPA-E trial. It counts as in vivo, human. On the procedure: as §1, §2, §3
For five years from before the start of the trial to the end of the trial, the concentration of the serum lipid (T-Cho, HDL-Cho, and TG) was periodically measured, and LDL-Cho was calculated by the equation of T-Cho-HDL-Cho-(TG/5). In addition, onset of cardiovascular events (cardiovascular death (fatal myocardial infarction and sudden cardiac death), nonfatal myocardial infarction, cardiovascular angioplasty, new onset of rest angina or effort angina, and destabilization of angina pectoris (hospitalization and cardiovascular angioplasty)) was observed.

The conditions of assay [3]: oral 600 mg three times a day immediately after meals (up to 900 mg when serum TG is abnormal); cited from earlier work.
The conditions of assay [4]: oral, cited from earlier work.
The conditions of assay [5]: two-year administration after PTCA; cited from earlier work.
Where [6] appears, read: Cardiovascular angioplasty history: No.
The mark [7] stands for this setting: Cardiovascular angioplasty history: Yes.
Setting [8] is: Myocardial Infarction history: No.
[9] abbreviates: Myocardial Infarction history: Yes.
Setting [10] is: EPA-E group with HMG-CoA RI, five years.

`CC/C=C\C/C=C\C/C=C\C/C=C\C/C=C\CCCC(=O)OCC` [EPA-E, ethyl icosapentate]: the “Odds ratio (incidence rate of the EPA-E group)/(incidence rate of the control group)” value in assay [1] (All Cases) is 0.808. The “Odds ratio (EPA-E group/control group)” value in assay [1] (setting [6]) is 0.862; in assay [1] (setting [7]), 0.671; in assay [1] (setting [8]), 0.811; in assay [1] (setting [9]) it was 0.744. Further, the “incidence rate of the cardiovascular events” value in assay [1] (setting [6]) was “(2.10) %”; in assay [1] (setting [7]) it was “(14.45) %”; in assay [1] (setting [8]), “(2.05) %”; in assay [1] (setting [9]) it was “(14.96) %”. The “Cases with the cardiovascular events/all cases” value is recorded as 77/533 in assay [1] (setting [7]) and 82/548 in assay [1] (setting [9]). In addition, in assay [1] (all cases), the “reduction of the incidence rate of the cardiovascular events compared to the control group” value is listed as “about 19%”. Besides, the results for the “decrease of the incidence rate of the cardiovascular events compared to the control group” value in assay [1] (patients with history of cardiovascular angioplasty) and in assay [1] (patients with history of myocardial infarction) were “about 33%” and “about 26%”, respectively. Further, in assay [2] (setting [10]), the “serum HDL-Cho concentration” value is listed as “no significant change”. For the same compound, the “serum TG concentration” value in assay [2] (setting [10]) is “decreased”. Moreover, the “serum LDL-Cho concentration” value in assay [2] (EPA-E group with HMG-CoA RI, five years, LDL-Cho calculated) is listed as “decreased”. Moreover, the “serum T-Cho concentration” value in assay [2] (EPA-E group with HMG-CoA RI, observation period of five years) is listed as “decreased”. Also, in assay [2] (five years), the “decrease in the serum TG concentration, EPA-E group versus control group” value is recorded as “more significant”. In addition, the “serum T-Cho concentration reduced” value in assay [3] is recorded as 3-6%.

For `CC[C@H](C)C(=O)O[C@H]1C[C@H](O)C=C2C=C[C@H](C)[C@H](CC[C@@H](O)C[C@@H](O)CC(=O)O)[C@H]21` [pravastatin sodium], in assay [4] (average 4.9 years), the “serum HDL-Cho concentration increased” value is reported as 5%; the “serum LDL-Cho concentration decreased” value is 26%; the “serum TG decreased” value is listed as 12%; the “total incidence rate of nonfatal myocardial infarction and cardiovascular death decreased” value is given as 31%. The “serum T-Cho concentration decreased” value in assay [4] (average period of 4.9 years, male hyperlipidemia patients with no history of myocardial infarction) was 20%. Besides, the restenosis rate result in assay [5] was “reduced the restenosis rate”.

(Values after patent US9198892B2, “Composition and/or method for preventing onset and/or recurrence of cardiovascular events” (MOCHIDA PHARMACEUTICAL CO., LTD., priority 2005, dated 2015).)
